Like-named read-outs stand apart in the source and are kept apart here.
Legend:
[1] = cited from earlier work
bile salt export pump = settings: in vitro; at clinically relevant concentrations; cited from earlier work
[2] = system: organic anion transporter 3; settings: in vitro; at clinically relevant concentrations; cited from earlier work
MATE1 = target: T1, MATE1 (Homo sapiens, UniProt Q96FL8); settings: in vitro; cited from earlier work
T1 sequence (Q96FL8 1-570): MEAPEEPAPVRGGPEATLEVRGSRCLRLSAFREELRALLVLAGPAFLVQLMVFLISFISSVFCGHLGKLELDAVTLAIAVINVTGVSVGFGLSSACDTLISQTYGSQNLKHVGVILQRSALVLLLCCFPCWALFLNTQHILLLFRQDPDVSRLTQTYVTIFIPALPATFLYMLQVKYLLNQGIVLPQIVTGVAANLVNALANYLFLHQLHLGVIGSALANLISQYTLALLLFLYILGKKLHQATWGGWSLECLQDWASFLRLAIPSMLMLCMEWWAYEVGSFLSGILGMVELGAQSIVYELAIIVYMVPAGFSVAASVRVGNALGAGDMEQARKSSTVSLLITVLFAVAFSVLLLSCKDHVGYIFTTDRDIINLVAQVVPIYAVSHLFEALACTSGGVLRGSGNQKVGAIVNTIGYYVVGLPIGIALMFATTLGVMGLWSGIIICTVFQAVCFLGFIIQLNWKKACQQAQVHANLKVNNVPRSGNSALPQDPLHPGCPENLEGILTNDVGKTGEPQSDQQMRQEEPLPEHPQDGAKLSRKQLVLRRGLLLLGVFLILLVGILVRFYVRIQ

[3] = system: carboxylesterase 2 (CES2); settings: cited from earlier work
[4] = cited from earlier work; remark: listed apart in the source
P‐gp = settings: in vitro; at clinically relevant concentrations; cited from earlier work
[5] = system: human colon carcinoma‐derived (Caco‐2) cells; settings: no reference given; cited from earlier work
[6] = system: organic anion transporting polypeptide 1B1; settings: in vitro; cited from earlier work
P‐glycoprotein = settings: in vitro; cited from earlier work
[7] = target: T2, organic cation transporter 2 (OCT2) (Homo sapiens, UniProt O15244); test: In vitro transporter inhibition: OCT2; type: in vitro ADME; settings: data on file at Gilead Sciences, Inc.
T2 sequence (O15244 1-555): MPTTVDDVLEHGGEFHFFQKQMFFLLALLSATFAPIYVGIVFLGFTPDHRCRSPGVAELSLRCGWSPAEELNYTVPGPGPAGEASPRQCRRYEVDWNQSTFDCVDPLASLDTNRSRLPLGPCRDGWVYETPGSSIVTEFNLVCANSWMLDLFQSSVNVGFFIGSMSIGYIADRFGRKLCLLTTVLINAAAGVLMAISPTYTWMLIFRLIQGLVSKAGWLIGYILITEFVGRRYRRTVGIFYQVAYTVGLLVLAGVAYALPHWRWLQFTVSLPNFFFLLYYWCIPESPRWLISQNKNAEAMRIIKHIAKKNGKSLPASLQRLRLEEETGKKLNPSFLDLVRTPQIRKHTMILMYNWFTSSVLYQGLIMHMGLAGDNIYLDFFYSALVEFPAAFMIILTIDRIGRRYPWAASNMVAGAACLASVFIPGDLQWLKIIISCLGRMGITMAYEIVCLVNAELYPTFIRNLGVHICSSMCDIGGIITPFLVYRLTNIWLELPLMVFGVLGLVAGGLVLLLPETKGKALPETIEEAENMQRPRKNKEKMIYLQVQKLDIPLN

[8] = system: organic anion transporter 4; settings: in vitro; at clinically relevant concentrations; cited from earlier work
[9] = target: T2, organic cation transporter 2 (OCT2); settings: in vitro; cited from earlier work
cytochrome P450 enzymes = settings: cited from earlier work
[10] = type: in vivo, human
Safety assessments = type: in vivo, human; settings: for subjects with at least one graded laboratory abnormality: majority grade 1 or 2
MATE2K = MATE2K (Homo sapiens, UniProt Q86VL8); settings: in vitro; cited from earlier work
[11] = 200 mg and 100 mg once‐daily; patients with active rheumatoid arthritis; phase III; cited from earlier work
[12] = no reference given; cited from earlier work
[13] = type: in vivo, human; remark: listed apart in the source
[14] = system: organic cation transporter 1; settings: in vitro; at clinically relevant concentrations; cited from earlier work
[15] = system: breast cancer resistance protein; settings: in vitro; at clinically relevant concentrations; cited from earlier work
[16] = study 2, filgotinib 200 mg after multiple doses of rifampin 600 mg vs alone
[17] = study 2, filgotinib + rifampin vs filgotinib alone
[18] = study 3, filgotinib treatment period
[19] = study 1, filgotinib 100 mg with itraconazole 200 mg vs alone
[20] = study 1, filgotinib + itraconazole vs filgotinib alone

MATE2K, sequence (Q86VL8 1-566 isoform Q86VL8-3): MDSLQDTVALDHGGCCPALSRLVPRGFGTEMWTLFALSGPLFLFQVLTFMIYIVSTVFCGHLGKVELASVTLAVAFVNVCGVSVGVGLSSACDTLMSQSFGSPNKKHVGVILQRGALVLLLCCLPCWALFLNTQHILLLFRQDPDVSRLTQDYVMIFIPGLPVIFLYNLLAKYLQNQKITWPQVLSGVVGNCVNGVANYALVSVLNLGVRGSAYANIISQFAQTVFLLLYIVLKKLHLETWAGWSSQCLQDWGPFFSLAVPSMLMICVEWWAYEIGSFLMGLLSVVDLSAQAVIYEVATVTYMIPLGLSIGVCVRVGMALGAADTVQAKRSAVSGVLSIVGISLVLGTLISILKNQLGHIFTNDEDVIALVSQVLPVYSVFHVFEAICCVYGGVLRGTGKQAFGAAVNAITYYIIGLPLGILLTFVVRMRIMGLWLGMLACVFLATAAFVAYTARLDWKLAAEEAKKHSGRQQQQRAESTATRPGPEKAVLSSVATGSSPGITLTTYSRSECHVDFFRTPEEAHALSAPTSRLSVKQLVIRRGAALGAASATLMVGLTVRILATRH

Compound: O=C(Nc1nc2cccc(-c3ccc(CN4CCS(=O)(=O)CC4)cc3)n2n1)C1CC1 [Filgotinib]
- accumulation following multiple doses [1]: no accumulation
- time to steady‐state concentrations [1]: ~ 2 days
- linearity of pharmacokinetics ([1]; from 50 to 200 mg, dose proportional and time‐independent): linear
- inhibition of bile salt export pump (bile salt export pump): not inhibitors
- inhibition of organic anion transporter 3 [2]: not inhibitors
- inhibition of MATE1 (MATE1): inhibited
- metabolism by CES2 to form GS‐829845 (in words) [3]: primarily metabolized
- administered dose eliminated in the urine as filgotinib and its metabolites [4]: Approximately 87%
- dose eliminated in the feces [4]: about 15%
- orally administered dose recovered in feces as the named species ([4]; filgotinib: unchanged): ~5%
- orally administered dose recovered in urine as the named species ([4]; filgotinib: unchanged): ~ 9%
- inhibition of P‐gp (P‐gp): not inhibitors
- efflux in Caco‐2 cells [5]: active efflux
- inhibition of OATP1B1 [6]: inhibited
- substrate of P‐glycoprotein (P‐glycoprotein): substrates
- inhibition of OCT2 (in words) ([7]; in vitro data): may inhibit
- ratio of maximum unbound plasma concentration over in vitro IC50 against OCT2 ([7]; patients with rheumatoid arthritis): 0.26
- inhibition of organic anion transporter 4 [8]: not inhibitors
- inhibition of OCT2 [9]: inhibited
- drug‐drug interactions (DDIs) liability with cytochrome P450 enzymes (cytochrome P450 enzymes; in vitro and in vivo data): relatively low
- substrate of the cytochrome P450 enzymes (cytochrome P450 enzymes; in vitro data, no reference given): not a substrate
- Tmax ([10]; human, plasma, oral): 1.5 h
- half-life ([10]; human, plasma, oral): 7.7 h
- AUC(0-inf) ([10]; human, plasma, oral, 200 mg): 6960 ng·h/mL
- AUC(0-t) ([10]; human, plasma, oral, 200 mg): 6980 ng·h/mL
- Cmax ([10]; human, plasma, oral, 200 mg): 2190 ng/mL
- Tmax ([10]; human, plasma, oral, 200 mg): 1 h
- half-life ([10]; human, plasma, oral, 200 mg): 8.4 h
- reduction in AUCinf by rifampin [10, 16]: 27%
- reduction in C max by rifampin [10, 16]: 26%
- AUCinf %GLSM ratio (90% CI) [10, 17]: 72.7 (69.1, 76.5) %
- AUClast %GLSM ratio (90% CI) [10, 17]: 72.7 (69.1, 76.5) %
- effect of rifampin on T max and t 1/2 (in words) ([10]; study 2, filgotinib: T max and t 1/2, GS‐829845: Tmax): similar
- CL/F ([10]; study 2, single filgotinib 200 mg alone, mean (%CV), N = 14): 30.1 (21.0) L/h
- tolerability (in words) (Safety assessments; all three studies, alone or with the co‐administered drugs): generally well‐tolerated
- subjects with AEs (Safety assessments; study 1, by treatment period, all grade 1, not related to study drug): 7.7%
- subjects with at least one graded laboratory abnormality (Safety assessments; study 1, by treatment period): 15%
- subjects with at least one graded laboratory abnormality (Safety assessments; study 2, by treatment period): 14%
- subjects with AEs (Safety assessments; study 3, by treatment period, all grade 1): 8.3%
- subjects with grade 3 decreased lymphocytes and neutrophils (Safety assessments; [18]): 8.3%
- subjects with grade 3 laboratory abnormalities (Safety assessments; [18]): 25%
- subjects with grade 3 occult blood in urine (Safety assessments; [18]): 17%
- subjects with at least one graded laboratory abnormality (Safety assessments; [18]): 75%
- AE considered related to study drug (kind of AE) (Safety assessments; study 3, one subject, by treatment phase): headache
- inhibition of MATE2K (MATE2K): inhibited
- signs and symptoms and physical function [11]: significantly improved
- permeability (BCS) [12]: high permeability
- solubility (BCS) [12]: low solubility
- Tmax ([13]; human, plasma, oral): 1 h
- half-life ([13]; human, plasma, oral): 6.26 h
- AUC(0-inf) ([13]; human, plasma, oral, 100 mg): 2190 ng·h/mL
- AUC(0-t) ([13]; human, plasma, oral, 100 mg): 2170 ng·h/mL
- Cmax ([13]; human, plasma, oral, 100 mg): 756 ng/mL
- Tmax ([13]; human, plasma, oral, 100 mg): 1 h
- half-life ([13]; human, plasma, oral, 100 mg): 7.4 h
- increase in AUCinf by itraconazole [13, 19]: 45%
- increase in C max by itraconazole [13, 19]: 64%
- AUCinf %GLSM ratio (90% CI) [13, 20]: 145 (133, 157) %
- AUClast %GLSM ratio (90% CI) [13, 20]: 145 (133, 158) %
- C max %GLSM ratio (90% CI) [13, 20]: 164 (129, 208) %
- effect of itraconazole on pharmacokinetic parameters (in words) ([13]; study 1, filgotinib: Tmax, t1/2, GS‐829845: C max, AUCinf, T max, t 1/2): did not affect
- CL/F ([13]; study 1, single filgotinib 100 mg alone, fasting, mean (%CV), N = 13): 48.6 (25.0) L/h
- inhibition of organic cation transporter 1 [14]: not inhibitors
- inhibition of breast cancer resistance protein [15]: not inhibitors

— PMC8841438 (Clinical and Translational Science, 2021)
